Reference: PubChem BioAssay AID330 (DTP/NCI, 2004)
“And” between values parts separate entries of the source, which are not always exact repeats. Equal values may be shown once. Inconclusive results and toxic doses are left out. How the source made its calls: active means survival T/C of 150% or more; inactive means T/C below 125% in these data.

System: P388 leukemia ip, CD2F1 mice, survival T/C
Test: NCI In Vivo Anticancer Drug Screen. Data for tumor model P388 Leukemia (intraperitoneal) in CD2F1 (CDF1) mice
Conditions: endpoint: median survival time, higher = longer survival
Outline: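 Mice carrying the transplanted tumor received test compound or vehicle. Survival was recorded in each group, and the value is the treated-group measurement divided by that of the vehicle-treated control group.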

[1] = dose: 60.0 mg/kg/injection, schedule: Q01DX005 (ip), vehicle: Klucel (hydroxypropylcellulose) (HPC)
[2] = dose: 120.0 mg/kg/injection, schedule: Q01DX005 (ip), vehicle: Klucel (hydroxypropylcellulose) (HPC)
[3] = dose: 240.0 mg/kg/injection, schedule: Q01DX005 (ip), vehicle: Klucel (hydroxypropylcellulose) (HPC)
[4] = dose: 60.0 mg/kg/injection, schedule: Q01DX005 (ip), vehicle: saline with Tween-80
[5] = dose: 120.0 mg/kg/injection, schedule: Q01DX005 (ip), vehicle: saline with Tween-80
[6] = dose: 240.0 mg/kg/injection, schedule: Q01DX005 (ip), vehicle: saline with Tween-80
[7] = dose: 50.0 mg/kg/injection, schedule: Q01DX005 (ip), vehicle: Klucel (hydroxypropylcellulose) (HPC)
[8] = dose: 100.0 mg/kg/injection, schedule: Q01DX005 (ip), vehicle: Klucel (hydroxypropylcellulose) (HPC)
[9] = dose: 200.0 mg/kg/injection, schedule: Q01DX005 (ip), vehicle: Klucel (hydroxypropylcellulose) (HPC)

Measured: T/C

CC(C)CCCCCCCCCCCCC(=O)NC1C(C)OC(Nc2ncnc3nc[nH]c23)C(O)C1O (stereo not given)
inactive: dose: 0.5 mg/kg/injection, schedule: Q01DX009 (ip), vehicle: other 107 % of control | dose: 1.0 mg/kg/injection, schedule: Q01DX009 (ip), vehicle: other 109 % of control | dose: 2.0 mg/kg/injection, schedule: Q01DX009 (ip), vehicle: other 98 % of control | dose: 4.0 mg/kg/injection, schedule: Q01DX009 (ip), vehicle: other 106 % of control | dose: 6.25 mg/kg/injection, schedule: Q01DX009 (ip), vehicle: other 104 % of control | dose: 8.0 mg/kg/injection, schedule: Q01DX009 (ip), vehicle: other 106 % of control | dose: 12.5 mg/kg/injection, schedule: Q01DX009 (ip), vehicle: other 91 % of control | dose: 25.0 mg/kg/injection, schedule: Q01DX009 (ip), vehicle: other 88 % of control | dose: 50.0 mg/kg/injection, schedule: Q01DX009 (ip), vehicle: other 91 % of control

OCC(O)Cn1cnc2c(NO)ncnc21 (stereo not given)
inactive: [1] 101 % of control | [2] 95 % of control | [3] 100 % of control

C=C(CN(C)C)C(=O)c1cc(C)ccc1C
inactive: dose: 0.93 mg/kg/injection, schedule: Q01DX005 (ip), vehicle: saline 100 % of control | dose: 1.87 mg/kg/injection, schedule: Q01DX005 (ip), vehicle: saline 100 % of control | dose: 3.75 mg/kg/injection, schedule: Q01DX005 (ip), vehicle: saline 98 % of control

Oc1cc(Br)ccc1/C=N/Nc1ccccn1
inactive: [4] 90 % of control | [5] 96 % of control | [6] 101 % of control

CC12CCCN(CCCl)C1CCC1C2CCC2(C)C1CCCN2CCCl (stereo not given)
inactive: dose: 0.78 mg/kg/injection, schedule: Q01DX001 (ip), vehicle: saline with Tween-80 108 % of control | dose: 1.56 mg/kg/injection, schedule: Q01DX001 (ip), vehicle: saline with Tween-80 112 % of control and 118 % of control | dose: 1.56 mg/kg/injection, schedule: Q01DX001 (ip), vehicle: saline 102 % of control | dose: 3.13 mg/kg/injection, schedule: Q01DX001 (ip), vehicle: saline with Tween-80 117 % of control

CCc1ccc(C(=O)O)cc1S(=O)(=O)Cl
inactive: dose: 12.5 mg/kg/injection, schedule: Q01DX009 (ip), vehicle: saline sonified 95 % of control | dose: 25.0 mg/kg/injection, schedule: Q01DX009 (ip), vehicle: saline sonified 86 % of control | dose: 50.0 mg/kg/injection, schedule: Q01DX009 (ip), vehicle: saline sonified 95 % of control

O=[N+]([O-])c1ccc(/C=C(/c2ccc([N+](=O)[O-])o2)S(=O)(=O)c2ccccc2)cc1
inactive: dose: 50.0 mg/kg/injection, schedule: Q01DX009 (ip), vehicle: suspension in saline 97 % of control | dose: 100.0 mg/kg/injection, schedule: Q01DX009 (ip), vehicle: suspension in saline 103 % of control | dose: 200.0 mg/kg/injection, schedule: Q01DX009 (ip), vehicle: suspension in saline 97 % of control

CC(=O)NN=Nc1ccc(C)cc1
inactive: [7] 105 % of control | [8] 102 % of control

C=CCO[C@H]1CO[C@H]2[C@@H]1OC[C@H]2OCC=C
inactive: dose: 50.0 mg/kg/injection, schedule: Q01DX005 (ip), vehicle: saline with Tween-80 96 % of control | dose: 100.0 mg/kg/injection, schedule: Q01DX005 (ip), vehicle: saline with Tween-80 97 % of control | dose: 200.0 mg/kg/injection, schedule: Q01DX005 (ip), vehicle: saline with Tween-80 99 % of control

CCc1nc(N)nc(N)c1-c1ccc(Cl)c(N=[N+]=[N-])c1
active: dose: 200.0 mg/kg/injection, schedule: Q01DX009 (ip), vehicle: distilled water + Tween-80 151 % of control
inactive: dose: 3.13 mg/kg/injection, schedule: Q01DX009 (ip), vehicle: distilled water + Tween-80 99 % of control | dose: 6.25 mg/kg/injection, schedule: Q01DX009 (ip), vehicle: distilled water + Tween-80 102 % of control | dose: 12.5 mg/kg/injection, schedule: Q01DX009 (ip), vehicle: distilled water + Tween-80 107 % of control | dose: 15.0 mg/kg/injection, schedule: Q01DX005 (ip), vehicle: Klucel (hydroxypropylcellulose) (HPC) 100 % of control | dose: 25.0 mg/kg/injection, schedule: Q01DX009 (ip), vehicle: distilled water + Tween-80 110 % of control and 89 % of control | dose: 30.0 mg/kg/injection, schedule: Q01DX005 (ip), vehicle: Klucel (hydroxypropylcellulose) (HPC) 108 % of control | dose: 50.0 mg/kg/injection, schedule: Q01DX009 (ip), vehicle: distilled water + Tween-80 109 % of control | [1] 106 % of control and 116 % of control

O=C(N/N=C\c1c(O)ccc2ccccc12)C1CC1
inactive: [7] 103 % of control | [8] 97 % of control | [9] 101 % of control

Oc1cc2c(cc1C(Nc1ncccn1)c1ccc(F)cc1)OCO2 (stereo not given)
inactive: [4] 99 % of control | [5] 91 % of control | [6] 92 % of control

CC(C(=O)O)N1C(=O)CNC1=O (stereo not given)
inactive: [7] 93 % of control | [8] 91 % of control | [9] 100 % of control

NC(=O)[C@@H]1CCCN1C(=O)c1cccnc1
inactive: dose: 60.0 mg/kg/injection, schedule: Q01DX005 (ip), vehicle: saline 98 % of control | dose: 120.0 mg/kg/injection, schedule: Q01DX005 (ip), vehicle: saline 97 % of control | dose: 240.0 mg/kg/injection, schedule: Q01DX005 (ip), vehicle: saline 103 % of control

CC(C)CC(NC(=O)C(C)N)C(N)=O (stereo not given)
inactive: dose: 50.0 mg/kg/injection, schedule: Q01DX005 (ip), vehicle: saline 99 % of control | dose: 100.0 mg/kg/injection, schedule: Q01DX005 (ip), vehicle: saline 103 % of control | dose: 200.0 mg/kg/injection, schedule: Q01DX005 (ip), vehicle: saline 96 % of control

O=C(Nc1ccc(Cl)cc1)Nc1nnc(-c2cccc(-c3nnc(NC(=O)Nc4ccc(Cl)cc4)o3)c2)o1
inactive: [1] 94 % of control | [2] 96 % of control | [3] 97 % of control

Cc1nc2c(cnn2C)c(=O)n1C(C)C
inactive: [7] 104 % of control | [8] 112 % of control | [9] 111 % of control

O=C(CCS(=O)(=O)CCC(=O)c1cccs1)c1cccs1
inactive: dose: 100.0 mg/kg/injection, schedule: Q04DX003 (ip), vehicle: saline 90 % of control | dose: 200.0 mg/kg/injection, schedule: Q04DX003 (ip), vehicle: saline 90 % of control | dose: 400.0 mg/kg/injection, schedule: Q04DX003 (ip), vehicle: saline 90 % of control

CC12COC3(C)CCC(C)(OC1)N23 (stereo not given)
inactive: dose: 50.0 mg/kg/injection, schedule: Q01DX009 (ip), vehicle: saline with Tween-80 100 % of control | dose: 100.0 mg/kg/injection, schedule: Q01DX009 (ip), vehicle: saline with Tween-80 97 % of control | dose: 200.0 mg/kg/injection, schedule: Q01DX009 (ip), vehicle: saline with Tween-80 103 % of control

C(CCC1CO1)CC1CO1 (stereo not given)
inactive: dose: 100.0 mg/kg/injection, schedule: Q04DX002 (ip), vehicle: Klucel (hydroxypropylcellulose) (HPC) 122 % of control

CC1=CC(OC2C=C(C)C(=O)O2)OC1=O (stereo not given)
inactive: dose: 100.0 mg/kg/injection, schedule: Q04DX002 (ip), vehicle: saline 100 % of control | dose: 200.0 mg/kg/injection, schedule: Q04DX002 (ip), vehicle: saline 100 % of control | dose: 400.0 mg/kg/injection, schedule: Q04DX002 (ip), vehicle: saline 104 % of control

CCc1nc2c(cnn2C)c(=O)n1-c1ccccc1
inactive: [7] 101 % of control | [8] 100 % of control | [9] 96 % of control

CCCCCCC/C=C/C(=O)OC1C(OC2C(OC(CCCCCCC)CC(=O)OC(CCCCCCC)CC(=O)O)OC(C)C(O)C2O)OC(C)C(O)C1O (stereo not given)
inactive: dose: 12.5 mg/kg/injection, schedule: Q01DX009 (ip), vehicle: Klucel (hydroxypropylcellulose) (HPC) 102 % of control and 89 % of control | dose: 25.0 mg/kg/injection, schedule: Q01DX009 (ip), vehicle: Klucel (hydroxypropylcellulose) (HPC) 98 % of control and 120 % of control and 87 % of control | dose: 50.0 mg/kg/injection, schedule: Q01DX009 (ip), vehicle: Klucel (hydroxypropylcellulose) (HPC) 120 % of control and 95 % of control (2×) | dose: 100.0 mg/kg/injection, schedule: Q01DX009 (ip), vehicle: Klucel (hydroxypropylcellulose) (HPC) 116 % of control
